Laboratory results taken from patent US9637472B2, “Substituted 6,5-fused bicyclic heteroaryl compounds” (Epizyme, Inc., priority 2011, dated 2017).

Molecular target: EZH2 (Homo sapiens (Human), UniProt Q15910)
Assay: PRC2 enzyme assay on peptide substrates
Assay type: biochemical
Conditions: PRC2 enzyme assays on peptide substrates; 4 nM enzyme, 30 min preincubation at 25° C.; read-out: EZH2 IC50
Source text: General Materials. S-adenosylmethionine (SAM), S-adenosylhomocyteine (SAH), bicine, KCl, Tween20, dimethylsulfoxide (DMSO) and bovine skin gelatin (BSG) were purchased from Sigma-Aldrich at the highest level of purity possible. Dithiothreitol (DTT) was purchased from EMD. ^3H-SAM was purchased from American Radiolabeled Chemicals with a specific activity of 80 Ci/mmol. 384-well streptavidin Flashplates were purchased from PerkinElmer.
Substrates. […] The sequences are listed below.
Recombinant PRC2 Enzymes. Human PRC2 enzymes were purified as 4-component enzyme complexes co-expressed in Spodoptera frugiperda (sf9) cells using a baculovirus expression system. The subunits expressed were wild-type EZH2 (NM_004456) or EZH2 Y641F, N, H, S or C mutants generated from the wild-type EZH2 construct, EED (NM_003797), Suz12 (NM_015355) and RbAp48 (NM_005610). The EED subunit contained an N-terminal FLAG tag that was used to purify the entire 4-component complex from sf9 cell lysates.
General Procedure for PRC2 Enzyme Assays on Peptide Substrates. The assays were all performed in a buffer consisting of 20 mM bicine (pH=7.6), 0.5 mM DTT, 0.005% BSG and 0.002% Tween20, prepared on the day of use. […] DMSO (1 μL) was added to columns 11, 12, 23, 24, rows A-H for the maximum signal control, and SAH, a known product and inhibitor of PRC2 (1 μL) was added to columns 11, 12, 23, 24, rows I-P for the minimum signal control. A cocktail (40 μL) containing the wild-type PRC2 enzyme and H3K27me0 peptide or any of the Y641 mutant enzymes and H3K27me2 peptide was added by Multidrop Combi (Thermo). The compounds were allowed to incubate with PRC2 for 30 min at 25° C., then a cocktail (10 μL) containing a mixture of non-radioactive and ^3H-SAM was added to initiate the reaction (final volume=51 μL). […] The assays were stopped by the addition of non-radioactive SAM (10 μL) to a final concentration of 600 μM, which dilutes the ^3H-SAM to a level where its incorporation into the peptide substrate is no longer detectable. 50 μL of the reaction in the 384-well polypropylene plate was then transferred to a 384-well Flashplate and the biotinylated peptides were allowed to bind to the streptavidin surface for at least 1 h before being washed three times with 0.1% Tween20 in a Biotek ELx405 plate washer. The plates were then read in a PerkinElmer TopCount platereader to measure the quantity of ^3H-labeled peptide bound to the Flashplate surface, measured as disintegrations per minute (dpm) or alternatively, referred to as counts per minute (cpm).
Where dpm=disintegrations per minute, cmpd=signal in assay well, and min and max are the respective minimum and maximum signal controls.
Where top and bottom are the normally allowed to float, but may be fixed at 100 or 0 respectively in a 3-parameter fit. The Hill Coefficient normally allowed to float but may also be fixed at 1 in a 3-parameter fit. Y is the % inhibition and X is the compound concentration.

EZH2, sequence (Q15910 other isoform, or with tags, fused parts or gaps): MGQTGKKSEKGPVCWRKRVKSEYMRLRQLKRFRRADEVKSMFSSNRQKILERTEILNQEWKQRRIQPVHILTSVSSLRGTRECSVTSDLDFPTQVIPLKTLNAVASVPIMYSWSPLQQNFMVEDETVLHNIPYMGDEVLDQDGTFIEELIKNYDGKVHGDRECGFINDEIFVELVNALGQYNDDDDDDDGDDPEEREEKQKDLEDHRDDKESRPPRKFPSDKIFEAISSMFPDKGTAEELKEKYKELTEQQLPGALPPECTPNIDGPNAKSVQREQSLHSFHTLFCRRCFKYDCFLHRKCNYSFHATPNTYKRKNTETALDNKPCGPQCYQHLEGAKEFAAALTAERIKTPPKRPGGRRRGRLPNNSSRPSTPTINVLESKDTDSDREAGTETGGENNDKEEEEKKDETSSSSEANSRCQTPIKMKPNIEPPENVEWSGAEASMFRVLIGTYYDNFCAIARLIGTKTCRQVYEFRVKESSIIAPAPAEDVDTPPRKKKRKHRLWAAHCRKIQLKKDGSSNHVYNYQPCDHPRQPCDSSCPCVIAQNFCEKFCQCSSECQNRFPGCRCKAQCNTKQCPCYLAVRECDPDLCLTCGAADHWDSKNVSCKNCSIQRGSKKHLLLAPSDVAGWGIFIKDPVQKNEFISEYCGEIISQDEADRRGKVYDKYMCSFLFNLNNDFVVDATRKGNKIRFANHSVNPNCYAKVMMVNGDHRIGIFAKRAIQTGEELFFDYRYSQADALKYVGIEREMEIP
EZH2, sequence (O75530 whole entry partner): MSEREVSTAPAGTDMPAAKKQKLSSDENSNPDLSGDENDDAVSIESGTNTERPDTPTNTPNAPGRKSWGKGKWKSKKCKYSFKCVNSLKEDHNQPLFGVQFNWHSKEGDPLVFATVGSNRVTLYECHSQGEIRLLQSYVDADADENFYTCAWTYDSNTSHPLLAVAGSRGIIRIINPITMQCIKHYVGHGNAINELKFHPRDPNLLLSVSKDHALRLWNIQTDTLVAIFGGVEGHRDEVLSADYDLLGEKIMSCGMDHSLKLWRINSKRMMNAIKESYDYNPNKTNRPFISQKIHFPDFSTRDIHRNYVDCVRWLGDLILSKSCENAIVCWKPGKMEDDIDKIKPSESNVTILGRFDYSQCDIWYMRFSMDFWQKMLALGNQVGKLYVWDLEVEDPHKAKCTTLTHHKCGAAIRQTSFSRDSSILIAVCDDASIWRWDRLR
EZH2, sequence (Q15022 whole entry partner): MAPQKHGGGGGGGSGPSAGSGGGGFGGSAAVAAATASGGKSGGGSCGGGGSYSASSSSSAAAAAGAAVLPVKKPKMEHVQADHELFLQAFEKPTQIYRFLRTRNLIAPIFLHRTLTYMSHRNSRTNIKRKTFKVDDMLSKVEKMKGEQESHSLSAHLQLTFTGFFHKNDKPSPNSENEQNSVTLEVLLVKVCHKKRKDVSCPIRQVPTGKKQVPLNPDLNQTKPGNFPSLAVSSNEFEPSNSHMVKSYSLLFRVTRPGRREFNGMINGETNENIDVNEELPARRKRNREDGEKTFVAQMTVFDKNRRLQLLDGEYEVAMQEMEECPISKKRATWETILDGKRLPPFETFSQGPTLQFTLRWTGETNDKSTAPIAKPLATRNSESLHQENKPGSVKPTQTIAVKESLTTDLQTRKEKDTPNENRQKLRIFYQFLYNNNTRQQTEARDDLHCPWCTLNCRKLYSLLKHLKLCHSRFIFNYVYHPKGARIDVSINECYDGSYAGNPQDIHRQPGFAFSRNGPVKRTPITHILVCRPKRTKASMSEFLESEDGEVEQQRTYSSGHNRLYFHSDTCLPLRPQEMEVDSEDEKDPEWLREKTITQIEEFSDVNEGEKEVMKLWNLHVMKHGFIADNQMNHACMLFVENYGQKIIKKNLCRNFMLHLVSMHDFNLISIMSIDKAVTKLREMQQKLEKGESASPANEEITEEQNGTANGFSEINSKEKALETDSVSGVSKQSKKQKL
EZH2, sequence (Q09028 whole entry partner): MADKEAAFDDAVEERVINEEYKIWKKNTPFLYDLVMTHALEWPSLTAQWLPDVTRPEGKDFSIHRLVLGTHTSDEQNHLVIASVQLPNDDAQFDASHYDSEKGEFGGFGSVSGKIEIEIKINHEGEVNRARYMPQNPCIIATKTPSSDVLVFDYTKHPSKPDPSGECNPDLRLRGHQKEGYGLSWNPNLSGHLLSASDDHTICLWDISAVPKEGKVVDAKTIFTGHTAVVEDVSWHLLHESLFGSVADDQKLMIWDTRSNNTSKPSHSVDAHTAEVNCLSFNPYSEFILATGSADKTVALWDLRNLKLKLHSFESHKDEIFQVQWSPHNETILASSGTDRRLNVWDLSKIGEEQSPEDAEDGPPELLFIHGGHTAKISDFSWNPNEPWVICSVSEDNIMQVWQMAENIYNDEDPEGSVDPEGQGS

Structure (SMILES): Cc1cc(C)c(CNC(=O)c2cc(CN(C)CCCN(C)C)cc3c2cnn3C2CCCC2)c(=O)[nH]1 [Compound D-67]
- IC50: 0.3 to 1 µM

Structure (SMILES): Cc1cc(C)c(CNC(=O)c2cc(N3CCC(C4CCN(C)CC4)CC3)nc3c2cnn3C(C)C)c(=O)[nH]1 [Compound B-94]
- IC50: 1 to 3 µM

Structure (SMILES): Cc1cc(COCCCN(C)C)c(CNC(=O)c2cccc3c2cnn3C2CCCC2)c(=O)[nH]1 [Compound D-86]
- IC50: 3 to 10 µM

Structure (SMILES): Cc1cc(C)c(CNC(=O)c2cc(C3=CC(C)(C)NC(C)(C)C3)nc3c2cnn3Cc2ccccc2)c(=O)[nH]1 [Compound B-151]
- IC50: 10 to 50 µM

Structure (SMILES): Cc1cc(C)c(CNC(=O)c2cc(C3=CCNCC3)cc3c2cnn3C2CCCC2)c(=O)[nH]1 [Compound D-41]
- IC50: < 0.3 µM

Structure (SMILES): CNC(=O)c1cc(C(=O)NCc2c(C)cc(C)[nH]c2=O)c2cnn(C(C)C)c2n1 [Compound B-18, N4-((4,6-dimethyl-2-oxo-1,2-dihydropyridin-3-yl)methyl)-1-isopropyl-N6-methyl-1H-pyrazolo[3,4-b]pyridine-4,6-dicarboxamide]
- IC50: 1 to 3 µM

Structure (SMILES): Cc1cc(C)c(CNC(=O)c2cc(-c3cn[nH]c3)nc3c2cnn3C(C)C)c(=O)[nH]1 [Compound A-49]
- IC50: 1 to 3 µM

Structure (SMILES): CNCC(=O)N1CC=C(c2cc(C(=O)NCc3c(C)cc(C)[nH]c3=O)c3cnn(C(C)C)c3n2)CC1 [Compound B-39]
- IC50: 0.3 to 1 µM

Structure (SMILES): COCCNCc1cc(C(=O)NCc2c(C)cc(C)[nH]c2=O)c2cnn(C3CCCC3)c2c1 [Compound D-73]
- IC50: 1 to 3 µM

Structure (SMILES): CC(=O)N1CC(n2ncc3c(C(=O)NCc4c(C)cc(C)[nH]c4=O)cc(Br)cc32)C1 [Compound D-35]
- IC50: 1 to 3 µM

Structure (SMILES): Cc1cc(C)c(CNC(=O)c2cc(C3CCN(CCN)CC3)cc3c2cnn3C2CCCC2)c(=O)[nH]1 [Compound D-96]
- IC50: < 0.3 µM

Structure (SMILES): Cc1[nH]c(=O)c(CNC(=O)c2cc(C3=CC(C)(C)NC(C)(C)C3)nc3c2cnn3C(C)C)c(C)c1Cc1ccccc1 [Compound B-143]
- IC50: 3 to 10 µM

Structure (SMILES): Cc1cc(C)c(CNC(=O)c2cc(C3CCN(C4CCN(CCS(C)(=O)=O)CC4)CC3)nc3c2cnn3C(C)C)c(=O)[nH]1 [Compound B-55]
- IC50: 0.3 to 1 µM

Structure (SMILES): Cc1cc(C)c(CNC(=O)c2cc(-c3ccc(CN4CCOCC4)cc3)cc3c2ccn3C2CCCC2)c(=O)[nH]1 [Compound E-2]
- IC50: < 0.3 µM

Structure (SMILES): Cc1cc(C)c(CNC(=O)c2cc(C(=O)N(C)CCN(C)C)nc3c2cnn3C(C)C)c(=O)[nH]1 [Compound B-133]
- IC50: 3 to 10 µM

Structure (SMILES): Cc1ccc(-n2ncc3c(C(=O)NCc4c(C)cc(C)[nH]c4=O)cc(-c4ccc(N5CCN(C)CC5)nc4)nc32)cc1 [Compound A-65]
- IC50: 3 to 10 µM

Structure (SMILES): Cc1cc(C)c(CNC(=O)c2cccc3c2cnn3C2CCCC2)c(=O)[nH]1 [Compound D-66]
- IC50: 0.3 to 1 µM

Structure (SMILES): Cc1cc(C)c(CNC(=O)c2cc(N3CCC(N4CCOCC4)CC3)nc3c2cnn3C(C)C)c(=O)[nH]1 [Compound B-87]
- IC50: 1 to 3 µM

Structure (SMILES): Cc1cc(CN2CCN(C)CC2)c(CNC(=O)c2cccc3c2cnn3C2CCCC2)c(=O)[nH]1 [Compound D-74]
- IC50: 1 to 3 µM

Structure (SMILES): Cc1cc(C)c(CNC(=O)c2cc(C3=CCN(C(=O)CO)CC3)cc3c2cnn3C2CCCC2)c(=O)[nH]1 [Compound D-54]
- IC50: 0.3 to 1 µM

Structure (SMILES): Cc1cc(C)c(CNC(=O)c2cc(Br)cc3c2cnn3C2CCN(C(=O)OC(C)(C)C)CC2)c(=O)[nH]1 [Compound D-12, tert-butyl 4-(6-bromo-4-(((4,6-dimethyl-2-oxo-1,2-dihydropyridin-3-yl)methyl)carbamoyl)-1H-indazol-1-yl)piperidine-1-carboxylate]
- IC50: < 0.3 µM

Structure (SMILES): Cc1cc(C)c(CNC(=O)c2cc(-c3ccc(CN(C)CCN)cc3)nc3c2cnn3C(C)C)c(=O)[nH]1 [Compound A-33]
- IC50: 0.3 to 1 µM

Structure (SMILES): Cc1cc(CO)c(CNC(=O)c2cccc3c2cnn3C2CCCC2)c(=O)[nH]1 [Compound D-88]
- IC50: 10 to 50 µM

Structure (SMILES): Cc1cc(C)c(CNC(=O)c2cc(C3=CCN(CCO)CC3)cc3c2cnn3C2CCCC2)c(=O)[nH]1 [Compound D-95]
- IC50: < 0.3 µM

Structure (SMILES): Cc1cc(C)c(CNC(=O)c2cc(-c3cnn(C)c3)nc3c2cnn3C(C)C)c(=O)[nH]1 [Compound A-48]
- IC50: 1 to 3 µM

Structure (SMILES): Cc1cc(C)c(CNC(=O)c2cc(C3CCNCC3)nc3c2cnn3C(C)C)c(=O)[nH]1 [Compound B-24, N-((4,6-dimethyl-2-oxo-1,2-dihydropyridin-3-yl)methyl)-1-isopropyl-6-(piperidin-4-yl)-1H-pyrazolo[3,4-b]pyridine-4-carboxamide]
- IC50: 0.3 to 1 µM

Structure (SMILES): Cc1cc(C)c(CNC(=O)c2cc(N(C)C)nc3c2cnn3C(C)C)c(=O)[nH]1 [Compound B-136]
- IC50: 3 to 10 µM

Structure (SMILES): Cc1cc(C)c(CN(C)C(=O)c2cc(-c3cccc(CN4CCN(C)CC4)c3)nc3c2cnn3C(C)C)c(=O)[nH]1 [Compound A-73]
- IC50: 10 to 50 µM

Structure (SMILES): Cc1cc(COCCN(C)C)c(CNC(=O)c2cc(Br)cc3c2cnn3C2CCCC2)c(=O)[nH]1 [Compound D-85]
- IC50: 3 to 10 µM

Structure (SMILES): Cc1cc(C)c(CNC(=O)c2cc(-c3ccc(CN)cc3)nc3c2cnn3C(C)C)c(=O)[nH]1 [Compound A-14, 6-(4-(aminomethyl)phenyl)-N-((4,6-dimethyl-2-oxo-1,2-dihydropyridin-3-yl)methyl)-1-isopropyl-1H-pyrazolo[3,4-b]pyridine-4-carboxamide]
- IC50: < 0.3 µM

Structure (SMILES): Cc1cc(C)c(CNC(=O)c2cc(-c3ccnc(N4CCNCC4)c3)nc3c2cnn3C(C)C)c(=O)[nH]1 [Compound A-37]
- IC50: 0.3 to 1 µM

Structure (SMILES): Cc1cc(C)c(CNC(=O)c2cc(COCCO)cc3c2cnn3C2CCCC2)c(=O)[nH]1 [Compound D-68]
- IC50: 0.3 to 1 µM

Structure (SMILES): Cc1cc(C)c(CNC(=O)c2cc(-c3ccnc(N4CCN(C(=O)OC(C)(C)C)CC4)c3)nc3c2cnn3C(C)C)c(=O)[nH]1 [Compound A-27]
- IC50: 0.3 to 1 µM

Structure (SMILES): CCOC(=O)Cn1ncc2c(C(=O)NCc3c(C)cc(C)[nH]c3=O)cc(C3=CC(C)(C)NC(C)(C)C3)nc21 [Compound B-156]
- IC50: 10 to 50 µM

Structure (SMILES): CCc1c(C)[nH]c(=O)c(CNC(=O)c2cc(C3CC(C)(C)NC(C)(C)C3)nc3c2cnn3C(C)C)c1C [Compound B-137]
- IC50: 3 to 10 µM

Structure (SMILES): Cc1cc(C)c(CNC(=O)c2cc(C3=CCN(C(=O)C4CCN(C)CC4)CC3)cc3c2cnn3C2CCCC2)c(=O)[nH]1 [Compound D-5, 1-cyclopentyl-N-((4,6-dimethyl-2-oxo-1,2-dihydropyridin-3-yl)methyl)-6-(1-(1-methylpiperidine-4-carbonyl)-1,2,3,6-tetrahydropyridin-4-yl)-1H-indazole-4-carboxamide]
- IC50: < 0.3 µM

Structure (SMILES): Cc1cc(C)c(CNC(=O)c2cc(-c3ccc(N4CCNCC4)nc3)nc3c2cnn3C(C)C)c(=O)[nH]1 [Compound A-10, N-((4,6-dimethyl-2-oxo-1,2-dihydropyridin-3-yl)methyl)-1-isopropyl-6-(6-(piperazin-1-yl)pyridin-3-yl)-1H-pyrazolo[3,4-b]pyridine-4-carboxamide]
- IC50: < 0.3 µM

Structure (SMILES): Cc1cc(C)c(CNC(=O)c2cc(-c3ccc(CN4CCOCC4)cc3)nc3c2cnn3C2CCCC2)c(=O)[nH]1 [Compound A-1, 1-cyclopentyl-N-((4,6-dimethyl-2-oxo-1,2-dihydropyridin-3-yl)methyl)-6-(4-(morpholinomethyl)phenyl)-1H-pyrazolo[3,4-b]pyridine-4-carboxamide]
- IC50: < 0.3 µM

Structure (SMILES): Cc1cc(C)c(CNC(=O)c2cc(N3CCC(C4CCNCC4)CC3)nc3c2cnn3C(C)C)c(=O)[nH]1 [Compound B-48]
- IC50: 0.3 to 1 µM
